Drawing on BindingDB's records for doi:10.1016/j.bmc.2023.117383 (Fuzhou University, 2023), this text covers Kd for one compound.

In test [1] the target is T1, Crossover junction endonuclease MUS81 (Homo sapiens, UniProt Q96NY9).
T1 sequence (Q96NY9 whole entry): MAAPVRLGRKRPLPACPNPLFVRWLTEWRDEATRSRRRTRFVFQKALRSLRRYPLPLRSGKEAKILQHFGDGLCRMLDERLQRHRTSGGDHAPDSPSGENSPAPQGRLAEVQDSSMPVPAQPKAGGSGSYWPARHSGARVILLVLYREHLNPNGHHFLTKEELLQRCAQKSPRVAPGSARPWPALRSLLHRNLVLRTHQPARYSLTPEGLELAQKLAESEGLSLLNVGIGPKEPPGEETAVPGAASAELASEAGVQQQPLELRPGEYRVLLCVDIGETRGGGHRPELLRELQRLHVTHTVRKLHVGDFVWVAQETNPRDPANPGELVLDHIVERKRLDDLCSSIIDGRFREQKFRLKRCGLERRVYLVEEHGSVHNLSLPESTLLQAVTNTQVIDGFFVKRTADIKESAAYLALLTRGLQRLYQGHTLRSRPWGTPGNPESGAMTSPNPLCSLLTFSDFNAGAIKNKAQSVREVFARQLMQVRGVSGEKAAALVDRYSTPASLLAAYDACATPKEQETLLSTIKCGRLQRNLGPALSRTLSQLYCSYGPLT
In words: Binding affinity to human GST-tagged MUS81-ECE1 expressed in Escherichia coli BL21(DE3)Rosetta2 cells assessed as dissociation constant by Surface plasmon resonance analysis. For orientation: SPR reads the build-up and loss of mass on a sensor chip optically.

Test [2] addresses T1, Crossover junction endonuclease MUS81. In words: Binding affinity to human GST-tagged MUS81-ECE2 expressed in Escherichia coli BL21(DE3)Rosetta2 cells assessed as dissociation constant by Surface plasmon resonance analysis.

A word on the Kd: it is the constant that tells how readily two partners part at equilibrium.

On to `O=C(N/N=C/c1cc(O)c(O)cc1O)c1cc2ccccc2cc1O`, for which the Kd in test [1] and in test [2] was 6.1 nM each time.
